ChEMBL document CHEMBL1201862, “PubChem BioAssay data set” (2004)
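Interpolation was linear, between the two tested concentrations surrounding the appropriate level; five concentrations were tested over 48 hours in 96-well plates. Abbreviation: GI50, concentration required for 50% inhibition of growth.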 Activity calls are given as the source filed them. Cut-off read from the data, not from the text of the source: active = GI50 up to about 1.1 µM and inactive = higher.

Tests used:
Test in all cases: growth of human tumour cells (NCI), 48 h
[1] = tested on: SR
[2] = tested on: A549
[3] = tested on: RXF 393
[4] = tested on: SF-268
[5] = tested on: 786-0
[6] = tested on: LOX IMVI
[7] = tested on: NCI-H23
[8] = tested on: T47D
[9] = tested on: SNB-75
[10] = tested on: RPMI-8226
[11] = tested on: HOP-62
[12] = tested on: BT-549
[13] = tested on: KM12
[14] = tested on: HCT-15
[15] = tested on: NCI-H460
[16] = tested on: MDA-MB-231
[17] = tested on: Hs-578T

Compound	GI50 [1]	GI50 [2]	GI50 [3]	GI50 [4]	GI50 [5]	GI50 [6]	GI50 [7]	GI50 [8]	GI50 [9]	GI50 [10]	GI50 [11]	GI50 [12]	GI50 [13]	GI50 [14] [µM]	GI50 [15]	GI50 [16]	GI50 [17]
CCCN1C(=O)CN(S(=O)(=O)c2ccc(Cl)cc2)C1=O	71 µM (inactive)	> 100 µM (inactive)	> 100 µM (inactive)	> 100 µM (inactive)	> 100 µM (inactive)	> 100 µM (inactive)	> 100 µM (inactive)	> 100 µM (inactive)	> 100 µM (inactive)	> 100 µM (inactive)	> 100 µM (inactive)	> 100 µM (inactive)	> 100 µM (inactive)	> 100	> 100 µM (inactive)	> 100 µM (inactive)	> 100 µM (inactive)
COC(=O)c1oc([N+](=O)[O-])c(Cl)c1Cl	2.08 µM (inactive)	8.51 µM (inactive)	12.7 µM (inactive)	8.28 µM (inactive)	4.14 µM (inactive)	6.05 µM (inactive)	8.73 µM (inactive)	4.76 µM (inactive)	7.78 µM (inactive)	3.96 µM (inactive)	8.71 µM (inactive)	7.98 µM (inactive)	5.83 µM (inactive)	7.57	17.2 µM (inactive)	7.35 µM (inactive)	11.4 µM (inactive)
Cn1c(N/N=C/c2ccc(Cl)cc2)nc(-c2ccc(Cl)cc2)c(C#N)c1=O	2.26 µM (inactive)	17.8 µM (inactive)	22.8 µM (inactive)	35.4 µM (inactive)	15.3 µM (inactive)	25.2 µM (inactive)	18.7 µM (inactive)	> 100 µM (inactive)	25.3 µM (inactive)	33.3 µM (inactive)	12 µM (inactive)	21.8 µM (inactive)	22.6 µM (inactive)	31.1	27 µM (inactive)	22.4 µM (inactive)	30.3 µM (inactive)
CSc1c(C(=O)Nc2ccc(Cl)cc2)c(N)nn1-c1ccccc1	> 100 µM (inactive)	> 24.5 µM (inactive)	22.7 µM (inactive)	> 100 µM (inactive)	9.75 µM (inactive)	> 100 µM (inactive)	> 100 µM (inactive)	> 100 µM (inactive)	21.6 µM (inactive)	> 100 µM (inactive)	80 µM (inactive)	> 100 µM (inactive)	> 100 µM (inactive)	> 100	> 59.2 µM (inactive)	40.8 µM (inactive)	> 28.2 µM (inactive)
COC(=O)C(=O)C(C(=O)OC)C(=O)C(=O)Nc1c(Cl)cc([N+](=O)[O-])cc1Cl (centres undefined)	> 10 µM (inactive)	> 100 µM (inactive)	81.3 µM (inactive)	40.1 µM (inactive)	40.7 µM (inactive)	83 µM (inactive)	> 100 µM (inactive)	> 100 µM (inactive)	64.1 µM (inactive)	> 100 µM (inactive)	37.1 µM (inactive)	> 100 µM (inactive)	> 100 µM (inactive)	92.9	> 100 µM (inactive)	> 100 µM (inactive)	66.2 µM (inactive)
COc1cccc2c1OC1(C=C2)Oc2ccccc2C(=O)N1C (centres undefined)	3.55 µM (inactive)	41.6 µM (inactive)	25.5 µM (inactive)	34.3 µM (inactive)	35.5 µM (inactive)	2.05 µM (inactive)	31.2 µM (inactive)	31.9 µM (inactive)	16.3 µM (inactive)	27.9 µM (inactive)	51.5 µM (inactive)	31.2 µM (inactive)	19.1 µM (inactive)	32.5	32.4 µM (inactive)	27.2 µM (inactive)	21.5 µM (inactive)
O=S1(=O)CCN(Cc2ccccc2)/C1=N\S(=O)(=O)c1ccc(Cl)cc1	24.2 µM (inactive)	65.3 µM (inactive)	19.5 µM (inactive)	16.6 µM (inactive)	19.7 µM (inactive)	18.1 µM (inactive)	18.9 µM (inactive)	22.2 µM (inactive)	21.2 µM (inactive)	25.8 µM (inactive)	65.2 µM (inactive)	17.2 µM (inactive)	27.4 µM (inactive)	20.3	22.3 µM (inactive)	> 100 µM (inactive)	26.2 µM (inactive)
O=c1c2cc(I)ccc2nc(SCc2n[nH]c(=S)o2)n1Cc1ccccc1	20.5 µM (inactive)	20.4 µM (inactive)	< 0.01 µM (active)	17.5 µM (inactive)	16.7 µM (inactive)	15.7 µM (inactive)	16.3 µM (inactive)	14.8 µM (inactive)	4.78 µM (inactive)	16.3 µM (inactive)	19.1 µM (inactive)	18.9 µM (inactive)	16.9 µM (inactive)	17.3	19.1 µM (inactive)	17.3 µM (inactive)	20.6 µM (inactive)
O=C(Nn1c(-c2ccccc2)nc2ccccc2c1=O)c1ccc(Cl)cc1	85.5 µM (inactive)	67.9 µM (inactive)	> 100 µM (inactive)	> 100 µM (inactive)	> 100 µM (inactive)	> 100 µM (inactive)	95.1 µM (inactive)	85.5 µM (inactive)	27.1 µM (inactive)	76 µM (inactive)	> 100 µM (inactive)	> 100 µM (inactive)	> 100 µM (inactive)	> 100	59.6 µM (inactive)	> 100 µM (inactive)	34 µM (inactive)
C[N+](C)([O-])CCCNc1ccnc2cccc([N+](=O)[O-])c12	34.2 µM (inactive)	47.4 µM (inactive)	18.7 µM (inactive)	27 µM (inactive)	> 100 µM (inactive)	28.2 µM (inactive)	34.6 µM (inactive)	40 µM (inactive)	39.2 µM (inactive)	21.5 µM (inactive)	83 µM (inactive)	41.9 µM (inactive)	33 µM (inactive)	24.2	15.5 µM (inactive)	53.5 µM (inactive)	21.1 µM (inactive)
O=C(C(=O)N1CCc2ccccc21)c1c[nH]c2ccccc12	> 10 µM (inactive)	> 10 µM (inactive)	> 10 µM (inactive)	> 10 µM (inactive)	> 10 µM (inactive)	> 10 µM (inactive)	> 10 µM (inactive)	> 10 µM (inactive)	> 10 µM (inactive)	> 10 µM (inactive)	> 10 µM (inactive)	> 10 µM (inactive)	> 10 µM (inactive)	> 10	> 10 µM (inactive)	> 10 µM (inactive)	> 10 µM (inactive)
O=C(O)CN1CCN(CC(=O)O)CCN(CC(=O)O)CCN(CC(=O)O)CC1 [TETRAXETAN]	> 100 µM (inactive)	> 100 µM (inactive)	> 100 µM (inactive)	> 100 µM (inactive)	> 100 µM (inactive)	> 100 µM (inactive)	> 100 µM (inactive)	> 100 µM (inactive)	> 100 µM (inactive)	> 100 µM (inactive)	> 100 µM (inactive)	> 100 µM (inactive)	> 100 µM (inactive)	> 100	> 100 µM (inactive)	> 100 µM (inactive)	> 100 µM (inactive)
